Assay results as given in article PMC9709406 (Frontiers in Pharmacology, 2022).
Values joined by “and” are separate entries in the source; they are usually repeats but may differ in a detail not shown here. Equal entries are not always repeated. Where two headings read alike, the source gives them in different places.

Experiments:
KYSE450TR cells [1] = test: Cell cycle analysis by flow cytometry, KYSE450TR; assay type: cell-based, human; details: 24 h, icotinib at 8 μM, 3l at 8 μM
Procedure: (§1) KYSE450/KYSE450TR cells were plated in 6-well plates with a density of 1×10^5 cells/well and cultured overnight. […] Trypsinization treatment and the cells were collected by centrifugation. The cell pellet was re-suspended in 70% ethanol at −20°C for at least 3 h. The cells were washed with PBS and were re-suspended in 250 μL of 0.6% tricine with Renease A for 1 h, then stained in PI (final concentration 1.8 μg/ml, Biolegend cat: 640945) for 15 min in dark. Cells were retransferred to the BD FACSCalibur™ Flow Cytometer. All analyses were performed with FlowJo software v105.3.6.

KYSE450TR cells [2] = test: MTT assay, taxol-resistant KYSE450TR; assay type: cell-based, human; details: for blank-corrected absorbance 490 nm relative to control (fraction) / inhibition (1 minus fraction of control): 450TR; for IC50: Homo sapiens, MTT
Text: The human cancer cells (H1650, H1975, KYSE70, KYSE410 and KYSE450) were purchased from the Type Culture Collection of the Chinese Academy of Sciences (Shanghai, China). The human immortalized normal esophageal epithelial cell line SHEE was donated by Dr. Enmin Li from the Laboratory of Tumor Pathology (Shantou University Medical College, Shantou, Guangdong, China). Drug-resistant cells (H1650TR, H1975OR, KYSE70TR, KYSE410TR and KYSE450TR) were induced by China-US (Henan) Hormel Cancer Institute. The cellswere cultured in RPMI-1640 complete growth medium containing 100 U/mL penicillin-streptomycin and 10% FBS. Based on the above medium formula, 100 nm/L paclitaxel was added in taxol-resistant cells, 100 nm/L gefitinib was added in gefitinib-resistant cells. The cells were incubated at 37 °C in an atmosphere containing 5% of CO2. The compounds were dissolved in DMSO to make a 50 mM stock solution and were diluted to the concentration of working solutions with complete growth medium before administration.
Cells were seeded in 96-well plates with 2,200–2,500 cells/well in100 μL. One day after seeding, test compounds with the concentration between 0 and 50 μM were added with 0.1% DMSO as control. Five multiple wells for each concentration. […] The absorbance at 490 nm was measured using a microplate reader (Thermo).

H1975 cells = test: MTT assay for cell proliferation and cytotoxicity, H1975; assay type: cell-based, human; details: Homo sapiens, NCI-H1975, 48 h, MTT, 48 h, H1975, n = 5; read-out: IC50 48 h H1975
Summary of the method: (§2)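 Viability was assessed by MTT at 490 nm after two days of compound treatment (0–50 μM) in RPMI-1640 with 10% FBS.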

[3] = target: T1, EGFR wild protein (H672-A1210) (Homo sapiens, UniProt P00533); test: EGFR protein affinity determined with SPR; assay type: binding; details: immobilized wild-type EGFR
T1 construct: purchased Active MOTIF 31165
T1 sequence (P00533 672-1210): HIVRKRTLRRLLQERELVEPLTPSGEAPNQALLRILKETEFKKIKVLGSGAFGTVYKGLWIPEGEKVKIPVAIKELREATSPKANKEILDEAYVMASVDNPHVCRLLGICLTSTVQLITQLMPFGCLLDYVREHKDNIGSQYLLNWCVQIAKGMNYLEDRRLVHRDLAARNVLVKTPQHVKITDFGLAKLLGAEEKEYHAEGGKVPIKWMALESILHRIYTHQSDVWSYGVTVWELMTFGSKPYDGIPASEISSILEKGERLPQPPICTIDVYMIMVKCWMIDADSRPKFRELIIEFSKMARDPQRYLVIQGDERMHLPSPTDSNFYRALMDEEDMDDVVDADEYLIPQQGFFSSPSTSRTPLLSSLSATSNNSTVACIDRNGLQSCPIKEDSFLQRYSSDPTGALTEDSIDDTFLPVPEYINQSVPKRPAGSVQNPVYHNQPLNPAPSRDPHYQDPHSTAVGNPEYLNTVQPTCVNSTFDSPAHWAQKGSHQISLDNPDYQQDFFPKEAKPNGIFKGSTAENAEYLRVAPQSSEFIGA
Procedure: Firstly, EGFR protein (protein concentration : 0.468 μg/μL, Active MOTIF, cat: 31165, lot: 28215004) was covalently immobilized onto a CM5 sensor chip at densities of 2000 response units. […] During the drug-protein interaction, the change of the refractive index was measured in real-time which would allow the plotting of the results of interaction as response units versus time. The interaction results were analyzed under a BIA evaluation 3.0 software.

[4] = test system: KYSE450 cell-derived xenograft; test: In vivo cell-derived xenograft (CDX) mouse model; set-up: species or system nu/nu nude mice
Procedure: Mice were housed under specific pathogen-free conditions. All animal experiments were approved by the Bioethics Committee of Zhengzhou University and followed the guidelines set by the Institutional Animal Care and Use Committee (CUHCI2019002, CUHCI2021001, and CUHCI2021005). To generate the cell-derived xenograft (CDX) mouse model, nu/nu nude mice (Vital River Labs., Beijing, China) were subcutaneously injected with 5 × 10^6 cells (KYSE450). […] Tumor volume was calculated as follows: length × width × height × 0.5. Tumor size and mice weight were measured every 2–3 days. Compounds were administered for 15 days. The tumors were extracted for weighting, immunohistochemistry and immunofluorescence studies.
Frozen sections were washed three times with PBS and incubated overnight at 4°C with Ki-67 antibody. The next day, sections were washed three times and incubated with secondary antibody in PBS. After several washes, slides were counterstained with DAPI (Solarbio). The sections were mounted on microscope and imaged using fluorescent microscopy (Nikon, Tokyo, Japan). Image-Pro Plus 6.0 was used to analyze the fluorescence intensity.
Histological sections were dewaxed, antigens were repaired and sealed with serum in sequence. Next, histological sections were incubated overnight with diluted primary antibodies (1 : 500 dilution), and the control specimens were treated with PBS. The sections were washed 3 times with PBS. Secondary antibody was added and the system was then placed at 37 °C for half an hour. The systems were washed 3 times with PBS. Color developing agent was added. After washing with water, the system was soaked in hematoxylin for 0.5 min for dyeing. The re-dyed slides were washed with water, and then dehydrated. Neutral gums were dropped on the side of the tissue. The slices were then covered with cover glass, sealed and placed in a ventilator for drying. Immunohistochemical staining analysis was then carried out with Image-Pro Plus 6.0.

KYSE450 cells = test: Cell cycle analysis by flow cytometry, KYSE450; assay type: cell-based, human; details: KYSE450, 24 h; icotinib at 2 μM, 3l at 8 μM
Procedure: as §1

SHEE cells = test: MTT assay, normal esophageal epithelial cell line SHEE; assay type: cell-based; details: Homo sapiens, 48 h, n = 5
Summary of the method: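 MTT, 48 h compound exposure, 0–50 μM, 0.1% DMSO ctrl, 5 replicate wells/conc. 2,200–2,500 cells/well; A490 read. Resistant lines maintained with 100 nm/L paclitaxel.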

EGFR = target: T2, EGFR (Homo sapiens, UniProt P00533); test: EGFR kinase assay (ELISA); assay type: biochemical; details: 25°C
T2 construct: purchased Active MOTIF
T2 sequence (P00533 25-1210): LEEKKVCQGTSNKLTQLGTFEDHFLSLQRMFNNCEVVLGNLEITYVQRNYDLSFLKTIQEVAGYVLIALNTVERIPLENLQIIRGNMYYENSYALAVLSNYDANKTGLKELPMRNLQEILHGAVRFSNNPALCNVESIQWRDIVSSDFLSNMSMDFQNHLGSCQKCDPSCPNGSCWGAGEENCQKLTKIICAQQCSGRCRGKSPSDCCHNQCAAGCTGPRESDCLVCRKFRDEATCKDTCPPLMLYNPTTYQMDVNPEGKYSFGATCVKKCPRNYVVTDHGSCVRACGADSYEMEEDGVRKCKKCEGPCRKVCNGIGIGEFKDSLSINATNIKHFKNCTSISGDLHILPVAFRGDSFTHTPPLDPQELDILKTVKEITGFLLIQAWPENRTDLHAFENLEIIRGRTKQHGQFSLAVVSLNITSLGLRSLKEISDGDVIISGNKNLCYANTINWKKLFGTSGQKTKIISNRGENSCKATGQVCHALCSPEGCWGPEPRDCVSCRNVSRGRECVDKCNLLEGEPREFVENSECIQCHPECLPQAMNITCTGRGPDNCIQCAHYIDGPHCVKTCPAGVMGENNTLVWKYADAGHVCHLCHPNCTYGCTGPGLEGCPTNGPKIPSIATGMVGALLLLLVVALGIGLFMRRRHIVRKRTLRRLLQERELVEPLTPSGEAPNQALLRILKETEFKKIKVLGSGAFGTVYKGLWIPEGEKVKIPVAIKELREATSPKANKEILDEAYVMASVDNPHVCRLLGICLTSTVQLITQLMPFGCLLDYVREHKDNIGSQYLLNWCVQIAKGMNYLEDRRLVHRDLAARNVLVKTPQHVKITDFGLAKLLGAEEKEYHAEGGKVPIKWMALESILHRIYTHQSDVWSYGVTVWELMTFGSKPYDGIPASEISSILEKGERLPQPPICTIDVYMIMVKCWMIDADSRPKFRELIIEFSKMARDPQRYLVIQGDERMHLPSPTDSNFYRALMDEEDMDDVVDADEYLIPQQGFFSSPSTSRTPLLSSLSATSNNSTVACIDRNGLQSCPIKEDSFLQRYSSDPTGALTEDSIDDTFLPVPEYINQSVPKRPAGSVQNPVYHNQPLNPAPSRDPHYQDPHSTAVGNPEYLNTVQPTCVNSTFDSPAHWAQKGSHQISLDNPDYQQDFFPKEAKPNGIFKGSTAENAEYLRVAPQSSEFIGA
Procedure: Kinase inhibitory activities of the compounds were evaluated using the Protein Tyrosine Kinase Assay Kit (SignalChem (British Columbia, Canada)). The kinase enzyme of EGFR was purchased from Active MOTIF. The ELISA experiments were carried out according the instructions of the kit. Active kinases were incubated with indicated compounds in 1 × reaction buffer containing 20 μM substrate at 25°C for 1 h and 2 h, respectively. The absorbance was read with a multimode plate reader (PerkinElmer, United States) at 450 nm.

H1650 cells = test: MTT assay for cell proliferation and cytotoxicity, H1650; assay type: cell-based; details: Homo sapiens, NCI-H1650, 48 h, H1650, n = 5
Summary of the method: as §2

[5] = nude mice, 50 mg/kg i.p. every day, 15 days, vs control group and icotinib group

Rmax(RU) [3]: 25.21 RU
Kd ([3]; 25°C): 8.23 µM and 8.24 µM
IC50 (EGFR; incubation 1 h, read-out: IC50 EGFR 1 h): 0.42 µM
IC50 (EGFR; incubation 2 h, read-out: IC50 EGFR 2 h): 1.67 µM
SMILES: FC(F)(F)c1ccc(-n2cc(-c3cccc(Nc4ncnc5cc6c(cc45)OCCOCCOCCO6)c3)nn2)cc1 [compound 3l]
cell cycle phase in which cells were arrested (KYSE450TR cells [1]): G2/M phase
blank-corrected absorbance 490 nm relative to control (fraction) (KYSE450TR cells [2]; concentration 4): 0.04737
inhibition (1 minus fraction of control) (KYSE450TR cells [2]; concentration 4): 0.9526
blank-corrected absorbance 490 nm relative to control (fraction) (KYSE450TR cells [2]; concentration 8): 0.04791
inhibition (1 minus fraction of control) (KYSE450TR cells [2]; concentration 8): 0.9521
blank-corrected absorbance 490 nm relative to control (fraction) (KYSE450TR cells [2]; concentration 16): 0.1075
inhibition (1 minus fraction of control) (KYSE450TR cells [2]; concentration 16): 0.8925
IC50 (KYSE450TR cells [2]; 450t (KYSE450TR), 490 nm, read-out: IC50): 2.1 µM
IC50 (KYSE450TR cells [2]; 48 h, taxol-resistant KYSE450TR, value in parentheses, read-out: IC50 48 h KYSE450TR (data in parentheses) (converted)): 8.59 µM
IC50 (H1975 cells): 3.26 ± 0.26 µM
expression of proliferation marker Ki-67 in tumor ([4]; 50 mg/kg i.p., immunofluorescence): decreased significantly
expression of P-ERK (Tyr202/204) in tumor ([4]; 50 mg/kg i.p., immunohistochemistry): decreased significantly
ESCC tumor volume [4, 5]: markedly reduced
average tumor weight [4, 5]: markedly reduced
cell cycle phase in which cells were arrested (KYSE450 cells): G2/M phase
IC50 (SHEE cells): 4.82 ± 0.23 µM
IC50 (H1650 cells): 4.4 ± 0.32 µM
